Consider three compounds from PMC9369794 (Molecules, 2022).

Series [1] in a line: FRAP assay for the antioxidant capacity. Further details: key to FRAP: slope of concentration-absorbance line divided by Trolox slope. As to conditions: stock in THF, acetate buffer pH 3.0, 37 °C, 15 min; ratio of slopes to trolox (melatonin in EtOH). Put shortly: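 Fe^3+→Fe^2+ reduction by antioxidants (THF stocks) in FRAP reagent (FeCl3/TPTZ, 300 mM acetate buffer pH 3.0), 15 min at 37 °C in the dark. Absorbance at 600 nm measured in triplicate at 0-17.5 μM final. FRAP value = slope of absorbance-concentration line divided by Trolox slope.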

A short description of the next series: Water dispersibility. It is filed as physicochemical. As to conditions: distilled water, sonication. As for the experimental part: About 2 mg of the examined substance was dispersed in 40 mL of distilled water and the suspension was sonicated for 2 min. The addition of water was continued with 10 mL portions, after each portion the mixture was sonicated for 2 min. This process was continued till a homogenous solution was observed by naked eye. Then, the solution was let to stand for an hour to inspect any precipitate formation, but no changes occurred in any of the cases.

The nature of series [2]: Study of aggregation by UV-Vis spectrophotometry. As to conditions: for change of UV spectrum with increasing ratio of PBS: starting from THF solutions. It is filed as physicochemical. Put shortly: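 Conjugates dissolved in THF and diluted with THF or THF-PBS mixtures (1:1, 1:3) at identical carotenoid concentration; separately, 2.5∙10−4 M DMSO stocks added to PBS to final 0.3125–5 μM carotenoid. UV-Vis spectra recorded to follow band shifts and fine-structure changes; DMSO-PBS solutions also examined by DLS.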

Series [3] is described as follows: Hydrodynamic diameter and colloidal stability of aggregates by dynamic light scattering. It is filed as physicochemical. As to conditions: for mean size (hydrodynamic diameter) / zeta potential: 37 °C; for PDI: sd^2/mean size^2. Put shortly: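 Hydrodynamic diameter (number-weighted; PDI as sd^2/mean size^2) and zeta potential were measured by DLS at 173° scattering angle. Samples, 0.3125–5 µM DMSO solutions diluted into PBS, were examined after 6 min incubation at 37 °C.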

Series [4] can be described thus: TEAC assay using ABTS radical. As to conditions: 6 min, ratio of slopes to trolox (melatonin dissolved in EtOH); for TEAC from DMSO: stock in DMSO diluted with PBS pH 7.4, 37 °C; for TEAC from THF: stock in THF diluted with PBS pH 7.4, 37 °C.
Series [5] can be described thus: Kinetic solubility in PBS pH 7.4. It is filed as physicochemical. As to conditions: aqueous buffer, kinetic from dmso stock, kinetic solubility after 2 h, at 37 °C in PBS, nominal 250 μM, read-out: Kin.Sol. As for the experimental part:
On a 96-well polypropylene plate (Greiner bio-one) 7.5 μL stock solutions were added to 292.5 μL PBS (pH 7.4) to make a solution with the nominal concentration of 250 μM. For each sample 3 replicates were measured. […] After that, each sample was transferred into a filter plate (MSSBLPC, Multiscreen Filter plate, Merck kGaA) and filtered (Vaccum Manifold, Merck kGaA, Darmstadt, Germany). The filtrates were transferred into UV-Star microplates (Greiner bio-one) and acetonitrile (AcN) was added to each well to avoid precipitation. The final solvent ratio was AcN:PBS 70:30. UV-Vis spectra were collected for each replicate by a Multiskan Sky UV-plate reader (Thermo Scientific, Waltham, MA, USA) in a wavelength range of 250–700 nm, with 1 nm steps. After blank substraction, the kinetic solubility of the samples was determined based on absorption at λmax using a 5-point calibration curve for each sample recorded in 70:30 AcN:PBS solvent.
Limit of detection (LOD) and limit of quantification (LOQ) were calculated with Equations (1) and (2) respectively, based on UV-Vis spectral data:(1) LOD=3.3×σ/s (2) LOQ=10×σ/s where the σ value in the equations stands for the standard deviation of the absorption base line at 700 nm (where no sample-specific absorption was observed). The s value is the slope of the calibration curve recorded for each sample based on their absorption at λmax (Table 4.)

Series [6] in a line: BBB-specific permeability assay (BBB-PAMPA). It is filed as in vitro ADME. As to conditions: PBS pH 7.4, 37 °C, read-out: BBB-PAMPA Pe. As for the experimental part:
In vitro, blood-brain barrier-specific (BBB) permeability studies were carried out using the PAMPA technique. First, solutions with the nominal concentration of 250 μM were prepared as described in Section 3.1. The solutions were shaken for 1 h at room temperature, at 300 rpm. For preparing the artificial BBB-specific membrane 16 mg BPLE and 8 mg cholesterol were dissolved in 600 μL dodecane. Each well of the donor plate (MultiscreenTM-IP, MAIPNTR10, pore size […], Merck kGaA) was coated with 5 μL lipid solution, and fitted into the acceptor plate containing 300 μL PBS (pH 7.4) with 2.5% DMSO, and 150–150 μL of the PBS solutions (made from the DMSO stock solutions) were put on the donor plate’s artificial membrane. The sandwich plate system was covered with a tissue of wet paper and a plastic lid to avoid evaporation of the solvent, and it was incubated at 37 °C for 4 h. In the end, the donor solutions were filtrated (Vacuum Manifold, Merck kGaA), and the initial 250 μM solutions (cD(0)), the donor (cD(t)) and acceptor solution (cA(t)) were analyzed by a Multiskan Sky UV-plate-reader (Thermo Scientific) in the wavelength range of 250–700 nm, with 1 nm steps.
BBB permeability was calculated using the effective permeability equation used for iso-pH conditions described by A. Avdeef:(3) Pe=−2.303/A·(t−τss)·(1/1+rv)·lg[−rv+(1+rv/1−MR)·cD(t)/cD(0)] […]

The mark [7] stands for this setting: 0.3125 μM in PBS from DMSO stock.
The mark [8] stands for this setting: 0.625 μM in PBS from DMSO stock.

Values after ≈ are worked out from the molar mass of the structure shown.

With `CC1=C[C@H](OC(=O)CCC(=O)O)CC(C)(C)[C@H]1/C=C/C(C)=C/C=C/C(C)=C/C=C/C=C(C)/C=C/C=C(C)/C=C/C1=C(C)C[C@@H](OC(=O)CCC(=O)O)CC1(C)C` [Compound 10, Lutein bissuccinate], the FRAP in series [1] stood at 0.184. Further, the “Water Dispersibility” value in “Water dispersibility” was found to be 1.5 mg/100 mL. Besides, the “change of UV spectrum with increasing ratio of PBS” value in series [2] was “did not cause much change”. For the same compound, the “mean size (hydrodynamic diameter)” value was found to be 453.5 nm in series [3] (setting [7]); 215.4 nm in series [3] (setting [8]); 263.3 nm in series [3] (1.25 μM in PBS from DMSO stock); 123.1 nm in series [3] (2.5 μM in PBS from DMSO stock); 143.8 nm in series [3] (3.75 μM in PBS from DMSO stock); 29.2 nm in series [3] (5 μM in PBS from DMSO stock). The zeta potential is on record as 103.0 mV in series [3] (setting [7]); 44.4 mV in series [3] (setting [8]); 89.6 mV in series [3] (1.25 μM in PBS from DMSO stock); 0.0 mV in series [3] (2.5 μM in PBS from DMSO stock); 0.0 mV in series [3] (3.75 μM in PBS from DMSO stock); 20.3 mV in series [3] (5 μM in PBS from DMSO stock). Further, the PDI in series [3] (0.3125 μM in PBS) is listed as 0.0235; in series [3] (0.625 μM in PBS), 0.0320; in series [3] (1.25 μM in PBS) it was 0.0608; in series [3] (2.5 μM in PBS), 0.0108; in series [3] (3.75 μM in PBS), 0.0121; in series [3] (5 μM in PBS) it was 0.0249. Moreover, the “TEAC from DMSO” value in series [4] was 1.49. In series [4], the “TEAC from THF” value was 2.356.

Take `CC1=C(/C=C/C(C)=C/C=C/C(C)=C/C=C/C=C(C)/C=C/C=C(C)/C=C/C2=C(C)C[C@@H](OC(=O)CCC(=O)O)CC2(C)C)C(C)(C)C[C@H](O)C1` [Compound 11, Zeaxanthin monossuccinate]: the FRAP in series [1] is 0.145. Besides, the “Water Dispersibility” value in “Water dispersibility” is reported as “less than 0.3 mg/100 mL”. In addition, the “type of aggregates formed” value in series [2] (from THF:aqueous solutions) is reported as “J-type (head-to-tail) aggregates”. The “change of UV spectrum with increasing ratio of PBS” value in series [2] is listed as “bathochromic shift”. The “mean size (hydrodynamic diameter)” value was determined as 30.98 nm in series [3] (setting [7]); 277.80 nm in series [3] (setting [8]); 25.09 nm in series [3] (1.25 μM in PBS from DMSO stock); 32.93 nm in series [3] (2.5 μM in PBS from DMSO stock); 17.71 nm in series [3] (3.75 μM in PBS from DMSO stock); 150.00 nm in series [3] (5 μM in PBS from DMSO stock). Further, the zeta potential in series [3] (setting [7]) is on record as 51.7 mV; in series [3] (setting [8]) it was 123.0 mV; in series [3] (1.25 μM in PBS from DMSO stock), 80.5 mV; in series [3] (2.5 μM in PBS from DMSO stock) it was 80.6 mV; in series [3] (3.75 μM in PBS from DMSO stock), 77.3 mV; in series [3] (5 μM in PBS from DMSO stock) it was −23.5 mV. Further, the PDI in series [3] (0.3125 μM in PBS) stood at 0.0256; in series [3] (0.625 μM in PBS), 0.0264; in series [3] (1.25 μM in PBS) it was 0.0310; in series [3] (2.5 μM in PBS), 0.0420; in series [3] (3.75 μM in PBS) it was 0.1357; in series [3] (5 μM in PBS), 0.0297. In addition, the “TEAC from DMSO” value in series [4] stood at 0.81. For the same compound, in series [4], the “TEAC from THF” value turned out to be 1.056.

`COc1ccc2[nH]cc(CCNC(C)=O)c2c1` [Melatonin, melatonin, reference compound]: in series [5], the solubility kinetic at 2 h was 123 ± 9.4 µM (≈ 28.6 µg/mL). In series [6], the Papp at 4 h, 250 μM was 2.97 ± 1.18 ×10⁻⁶ cm/s.
